For series [1] the following is noted: pump delivery, over 6-months; cited from earlier work.
The conditions of series [2]: cited from earlier work; for osteosarcoma rate: rats, daily injections.
The conditions of series [3]: cited from earlier work.
For series [4] the following is noted: 6-year follow-up; cited from earlier work.
A short description of series [5]: Dose range finding / dose adjustment study with daily subcutaneous injections of TransCon PTH. The conditions noted are these: for sCa compared to pre-study levels: severe hypercalcaemic levels. Also on record: time of peak calcium concentration postdose / increases in calcium to pre-study levels / calcium increases: dose or concentration left out as unconfirmed.
Procedure: Dose Range Finding Study—Dose Adjustment Study in Cynomolgus Monkeys with Daily Subcutaneous Injections with TransCon PTH
This study was conducted in order to test the hypothesis of performing dose adjustments with TransCon PTH in 25% increments in response to hypocalcemia or hypercalcemia. The study was performed in male and female Cynomolgus monkeys. Four groups with one male and one female animal in each were dosed for four weeks starting at doses 0.2, 0.5, 1.0 and 2.0 μg/kg/day, respectively. Serum calcium (sCa) levels in the animals were measured pre-dose and post-dose on days -6, 1, 3, 7, 8, 12, 14, 16, 19, 23, 26, 28 and 29.

Where two headings read alike, the source gives them in different places.

Turning to `CC[C@H](C)[C@H](NC(=O)[C@H](CCC(=O)O)NC(=O)[C@H](CO)NC(=O)[C@@H](NC(=O)[C@@H](N)CO)C(C)C)C(=O)N[C@@H](CCC(N)=O)C(=O)N[C@@H](CC(C)C)C(=O)N[C@@H](CCSC)C(=O)N[C@@H](Cc1cnc[nH]1)C(=O)N[C@@H](CC(N)=O)C(=O)N[C@@H](CC(C)C)C(=O)NCC(=O)N[C@@H](CCCCN)C(=O)N[C@@H](Cc1cnc[nH]1)C(=O)N[C@@H](CC(C)C)C(=O)N[C@@H](CC(N)=O)C(=O)N[C@@H](CO)C(=O)N[C@@H](CCSC)C(=O)N[C@@H](CCC(=O)O)C(=O)N[C@@H](CCCN=C(N)N)C(=O)N[C@H](C(=O)N[C@@H](CCC(=O)O)C(=O)N[C@@H](Cc1c[nH]c2ccccc12)C(=O)N[C@@H](CC(C)C)C(=O)N[C@@H](CCCN=C(N)N)C(=O)N[C@@H](CCCCN)C(=O)N[C@@H](CCCCN)C(=O)N[C@@H](CC(C)C)C(=O)N[C@@H](CCC(N)=O)C(=O)N[C@@H](CC(=O)O)C(=O)N[C@H](C(=O)N[C@@H](Cc1cnc[nH]1)C(=O)N[C@@H](CC(N)=O)C(=O)N[C@@H](Cc1ccccc1)C(=O)O)C(C)C)C(C)C` [PTH(1-34)], the calcium levels entry in series [1] is listed as “normal, steady state calcium levels with minimal fluctuation”. Moreover, in series [2], the osteosarcoma rate entry is recorded as “dose dependent increase”.
Turning to “PTH(1-84): Natpara, PTH(1-84), approved 2015 for once-daily subcutaneous injection in hypoparathyroidism; SEQ ID NO: 1”, in series [3] (2-8 hours after injection), the urinary calcium excretion entry is “reduced”. Also, the urinary phosphate excretion result in series [3] (after injection) was “increased only during the first 8 hours”. Moreover, the “patients developing hypercalcemia at one or more measurements” value in series [3] (during a 24-hour period after injection) was 71%. For the same compound, the “participants achieving normal blood calcium levels on reduced doses of calcium supplements and active forms of vitamin D” value in series [3] (once-daily subcutaneous injection, pivotal trial) was 42%. The urinary calcium excretion entry in series [3] (over the 24-hour period) was “did not change”. Besides, in series [4], the “BMD by DXA” value is “increases in lumbar spine and declines in distal ⅓ radius”; the bone turnover markers entry was “remained greater than pretreatment values”. Besides, the “deaths in high dose group” value in series [2] (high dose rats, dosing discontinued, primarily from metastatic osteosarcoma) was “excessive deaths”. In addition, the osteosarcoma rate entry in series [2] is “dose dependent increase”.
For “TransCon PTH: controlled-release PTH compound administered subcutaneously to cynomolgus monkeys; not tied to a numbered conjugate”, the “sCa compared to pre-study levels” value in series [5] (Day 3, female dosed at 2.0 μg/kg/day) is not above 1.34 ×; in series [5] (Day 3, male dosed at 2.0 μg/kg/day) it was “up to 1.42 ×”. For the same compound, the “time of peak calcium concentration postdose” value in series [5] (Day 23, male) was found to be 4 h. Besides, the “increases in calcium to pre-study levels” value in series [5] (Day 26, male and female) is “up to 1.17 ×”. For the same compound, the calcium increases entry in series [5] (Day 29, both sexes) is reported as “still present”. In addition, the tolerability entry in series [5] (daily subcutaneous administration at 0.2, 0.5 and 1.0 jag/kg/day for 28 days) is on record as “well tolerated”.

Source of the values: US12453778B2, “Incremental dose finding in controlled-release PTH compounds” (Ascendis Pharma Bone Diseases A/S, priority 2016, dated 2025).
